In PubChem BioAssay AID1259407 (Chemical Carcinogenesis Research Information System (CCRIS), 2018):
Calls of active or inactive are those of the source. No rule for the calls is given here.

Test system: CCRIS mutagenicity, Ames/micronucleus/aberration tests
Test: CCRIS mutagenicity studies
[1] = Test System: AMES SALMONELLA TYPHIMURIUM, Strain/Indicator: TA97, Metabolic Activation: NONE, Method: PREINCUBATION
[2] = Test System: AMES SALMONELLA TYPHIMURIUM, Strain/Indicator: TA98, Metabolic Activation: HAMSTER, LIVER, S-9, AROCLOR 1254 (10%), Method: PREINCUBATION
[3] = Test System: AMES SALMONELLA TYPHIMURIUM, Strain/Indicator: TA98, Metabolic Activation: NONE, Method: PREINCUBATION
[4] = Test System: AMES SALMONELLA TYPHIMURIUM, Strain/Indicator: TA98, Metabolic Activation: RAT, LIVER, S-9, AROCLOR 1254 (10%), Method: PREINCUBATION
[5] = Test System: AMES SALMONELLA TYPHIMURIUM, Strain/Indicator: TA100, Metabolic Activation: HAMSTER, LIVER, S-9, AROCLOR 1254 (10%), Method: PREINCUBATION
[6] = Test System: AMES SALMONELLA TYPHIMURIUM, Strain/Indicator: TA100, Metabolic Activation: NONE, Method: PREINCUBATION
[7] = Test System: AMES SALMONELLA TYPHIMURIUM, Strain/Indicator: TA100, Metabolic Activation: RAT, LIVER, S-9, AROCLOR 1254 (10%), Method: PREINCUBATION
[8] = Test System: AMES SALMONELLA TYPHIMURIUM, Strain/Indicator: TA1535, Metabolic Activation: HAMSTER, LIVER, S-9, AROCLOR 1254 (10%), Method: PREINCUBATION
[9] = Test System: AMES SALMONELLA TYPHIMURIUM, Strain/Indicator: TA1535, Metabolic Activation: NONE, Method: PREINCUBATION
[10] = Test System: AMES SALMONELLA TYPHIMURIUM, Strain/Indicator: TA1535, Metabolic Activation: RAT, LIVER, S-9, AROCLOR 1254 (10%), Method: PREINCUBATION
[11] = Test System: AMES SALMONELLA TYPHIMURIUM, Strain/Indicator: TA1537, Metabolic Activation: NONE, Method: PREINCUBATION
[12] = Test System: AMES SALMONELLA TYPHIMURIUM, Strain/Indicator: TA98, Metabolic Activation: NONE, Method: STANDARD PLATE
[13] = Test System: AMES SALMONELLA TYPHIMURIUM, Strain/Indicator: TA100, Metabolic Activation: NONE, Method: STANDARD PLATE
[14] = Test System: AMES SALMONELLA TYPHIMURIUM, Strain/Indicator: TA100, Metabolic Activation: RAT, LIVER, S-9, AROCLOR 1254, Method: STANDARD PLATE

CCCCCCC(=O)O
mutagenic call (Test System: AMES SALMONELLA TYPHIMURIUM, Strain/Indicator: TA97, Metabolic Activation: HAMSTER, LIVER, S-9, AROCLOR 1254 (10%), Method: PREINCUBATION): inactive; negative
mutagenic call (Test System: AMES SALMONELLA TYPHIMURIUM, Strain/Indicator: TA97, Metabolic Activation: HAMSTER, LIVER, S-9, AROCLOR 1254 (30%), Method: PREINCUBATION): inactive; negative
mutagenic call [1]: inactive; negative
mutagenic call (Test System: AMES SALMONELLA TYPHIMURIUM, Strain/Indicator: TA97, Metabolic Activation: RAT, LIVER, S-9, AROCLOR 1254 (10%), Method: PREINCUBATION): inactive; negative
mutagenic call (Test System: AMES SALMONELLA TYPHIMURIUM, Strain/Indicator: TA97, Metabolic Activation: RAT, LIVER, S-9, AROCLOR 1254 (30%), Method: PREINCUBATION): inactive; negative
mutagenic call [2]: inactive; negative
mutagenic call (Test System: AMES SALMONELLA TYPHIMURIUM, Strain/Indicator: TA98, Metabolic Activation: HAMSTER, LIVER, S-9, AROCLOR 1254 (30%), Method: PREINCUBATION): inactive; negative
mutagenic call [3]: inactive; negative
mutagenic call [4]: inactive; negative
mutagenic call (Test System: AMES SALMONELLA TYPHIMURIUM, Strain/Indicator: TA98, Metabolic Activation: RAT, LIVER, S-9, AROCLOR 1254 (30%), Method: PREINCUBATION): inactive; negative
mutagenic call [5]: inactive; negative
mutagenic call (Test System: AMES SALMONELLA TYPHIMURIUM, Strain/Indicator: TA100, Metabolic Activation: HAMSTER, LIVER, S-9, AROCLOR 1254 (30%), Method: PREINCUBATION): inactive; negative
mutagenic call [6]: inactive; negative
mutagenic call [7]: inactive; negative
mutagenic call (Test System: AMES SALMONELLA TYPHIMURIUM, Strain/Indicator: TA100, Metabolic Activation: RAT, LIVER, S-9, AROCLOR 1254 (30%), Method: PREINCUBATION): inactive; negative
mutagenic call [8]: inactive; negative
mutagenic call (Test System: AMES SALMONELLA TYPHIMURIUM, Strain/Indicator: TA1535, Metabolic Activation: HAMSTER, LIVER, S-9, AROCLOR 1254 (30%), Method: PREINCUBATION): inactive; negative
mutagenic call [9]: inactive; negative
mutagenic call [10]: inactive; negative
mutagenic call (Test System: AMES SALMONELLA TYPHIMURIUM, Strain/Indicator: TA1535, Metabolic Activation: RAT, LIVER, S-9, AROCLOR 1254 (30%), Method: PREINCUBATION): inactive; negative
mutagenic call (Test System: AMES SALMONELLA TYPHIMURIUM, Strain/Indicator: TA1537, Metabolic Activation: HAMSTER, LIVER, S-9, AROCLOR 1254 (30%), Method: PREINCUBATION): inactive; negative
mutagenic call [11]: inactive; negative
mutagenic call (Test System: AMES SALMONELLA TYPHIMURIUM, Strain/Indicator: TA1537, Metabolic Activation: RAT, LIVER, S-9, AROCLOR 1254 (30%), Method: PREINCUBATION): inactive; negative

Clc1cccc2oc3ccccc3c12
mutagenic call [12]: inactive; negative
mutagenic call (Test System: AMES SALMONELLA TYPHIMURIUM, Strain/Indicator: TA98, Metabolic Activation: RAT, LIVER, S-9, PHENOBARBITAL AND NAPHTHOFLAVONE, Method: STANDARD PLATE): inactive; negative
mutagenic call [13]: inactive; negative
mutagenic call (Test System: AMES SALMONELLA TYPHIMURIUM, Strain/Indicator: TA100, Metabolic Activation: RAT, LIVER, S-9, PHENOBARBITAL AND NAPHTHOFLAVONE, Method: STANDARD PLATE): inactive; negative

CCCCOC(=O)CCC
mutagenic call [1]: inactive; negative
mutagenic call (Test System: AMES SALMONELLA TYPHIMURIUM, Strain/Indicator: TA97, Metabolic Activation: RAT, LIVER, S-9, AROCLOR 1254, Method: PREINCUBATION): inactive; negative
mutagenic call (Test System: AMES SALMONELLA TYPHIMURIUM, Strain/Indicator: TA102, Metabolic Activation: NONE, Method: PREINCUBATION): inactive; negative
mutagenic call (Test System: AMES SALMONELLA TYPHIMURIUM, Strain/Indicator: TA102, Metabolic Activation: RAT, LIVER, S-9, AROCLOR 1254, Method: PREINCUBATION): inactive; negative

Cc1cnc2ccc3c(nc(N[C@@H]4O[C@H](C(=O)O)[C@@H](O)[C@H](O)[C@H]4O)n3C)c2n1
mutagenic call [3]: inactive; negative
mutagenic call (Test System: AMES SALMONELLA TYPHIMURIUM, Strain/Indicator: TA98, Metabolic Activation: RAT, LIVER, S-9, AROCLOR 1254, Method: PREINCUBATION): inactive; negative

CC(O)CNCC(C)O (stereo unspecified)
mutagenic call [2]: inactive; negative
mutagenic call [3]: inactive; negative
mutagenic call [4]: inactive; negative
mutagenic call [5]: inactive; negative
mutagenic call [6]: inactive; negative
mutagenic call [7]: inactive; negative
mutagenic call [8]: inactive; negative
mutagenic call [9]: inactive; negative
mutagenic call [10]: inactive; negative
mutagenic call (Test System: AMES SALMONELLA TYPHIMURIUM, Strain/Indicator: TA1537, Metabolic Activation: HAMSTER, LIVER, S-9, AROCLOR 1254 (10%), Method: PREINCUBATION): inactive; negative
mutagenic call [11]: inactive; negative
mutagenic call (Test System: AMES SALMONELLA TYPHIMURIUM, Strain/Indicator: TA1537, Metabolic Activation: RAT, LIVER, S-9, AROCLOR 1254 (10%), Method: PREINCUBATION): inactive; negative

O.O=P([O-])([O-])[O-].[Fe+3]
mutagenic call (Test System: MOUSE LYMPHOMA, Strain/Indicator: L5178Y (TK+/TK-), Metabolic Activation: NONE, Method: SUSPENSION/PLATE): inactive; negative. reevaluation of results: negative
mutagenic call (Test System: MOUSE LYMPHOMA, Strain/Indicator: L5178Y (TK+/TK-), Metabolic Activation: RAT, LIVER, S-9, AROCLOR 1254, Method: SUSPENSION/PLATE): active; positive
mutagenic call (Test System: Mouse lymphoma, Strain/Indicator: L5178Y (tk+/tk-), Metabolic Activation: Rat, Liver, S-9, Aroclor 1254, Method: Suspension/plate): active; equivocal (previous evaluation positive)

CC\C=C/C=C\C=C/C=C\C=C/OCC(O)CO (stereo unspecified)
mutagenic call [12]: active; positive
mutagenic call [13]: active; positive
mutagenic call (Test System: AMES SALMONELLA TYPHIMURIUM, Strain/Indicator: TA104, Metabolic Activation: NONE, Method: STANDARD PLATE): active; positive

CCOc1cc(N=Nc2ccccc2)ccc1N=Nc1c(S(=O)(=O)O)cc2ccc(N)cc2c1O
mutagenic call [12]: inactive; negative
mutagenic call (Test System: AMES SALMONELLA TYPHIMURIUM, Strain/Indicator: TA98, Metabolic Activation: RAT, LIVER, S-9, AROCLOR 1254, Method: STANDARD PLATE): active; positive
mutagenic call [13]: inactive; negative
mutagenic call [14]: active; positive
mutagenic call (Test System: AMES SALMONELLA TYPHIMURIUM, Strain/Indicator: TA1538, Metabolic Activation: NONE, Method: STANDARD PLATE): inactive; negative
mutagenic call (Test System: AMES SALMONELLA TYPHIMURIUM, Strain/Indicator: TA1538, Metabolic Activation: RAT, LIVER, S-9, AROCLOR 1254, Method: STANDARD PLATE): active; positive

Nc1c2ccccc2nc2ccc([N+](=O)[O-])cc12
mutagenic call (Test System: AMES SALMONELLA TYPHIMURIUM, Strain/Indicator: TA1537, Metabolic Activation: NONE): active; positive
mutagenic call [11]: active; positive

CCC(=O)CN(C)N=O
mutagenic call (Test System: CHINESE HAMSTER V-79, Strain/Indicator: V-79/OUABAIN, Metabolic Activation: HAMSTER, HEPATOCYTES, Method: CELL-MEDIATED): active; positive

O=C1CC2=C(CCCC2)c2c1c1c(c3c2=CC=C3)C=CC=1
mutagenic call [14]: inactive; negative
